Reference: ChEMBL document CHEMBL4831486, “Design, synthesis and biological evaluation of pleuromutilin-Schiff base hybrids as potent anti-MRSA agents in vitro and in vivo” (Eur J Med Chem, 2021)
≈ marks a conversion by molar mass, not a printed value.

Experiments:
[1] = system: Escherichia coli; assay: Bactericidal activity against Escherichia coli ATCC 25922 assessed as inhibition of bacterial growth measured after 96 hrs by broth dilution method; format: functional
[2] = system: Staphylococcus aureus; assay: Antibacterial activity against Staphylococcus aureus 144 assessed as inhibition of bacterial growth measured after 24 hrs by broth dilution method; format: functional
[3] = system: Staphylococcus aureus; assay: Antibacterial activity against Staphylococcus aureus ATCC 29213 assessed as inhibition of bacterial growth measured after 24 hrs by broth dilution method; format: functional
[4] = system: Staphylococcus aureus; assay: Bactericidal activity against Staphylococcus aureus ATCC 29213 assessed as inhibition of bacterial growth measured after 96 hrs by broth dilution method; format: functional
[5] = system: Staphylococcus aureus; assay: Antibacterial activity against Staphylococcus aureus AD3 assessed as inhibition of bacterial growth measured after 24 hrs by broth dilution method; format: functional
[6] = system: Staphylococcus aureus; assay: Bactericidal activity against Methycillin-resistant Staphylococcus aureus ATCC 43300 assessed as inhibition of bacterial growth measured after 96 hrs by broth dilution method; format: functional
[7] = system: Staphylococcus aureus; assay: Bactericidal activity against Staphylococcus aureus 144 assessed as inhibition of bacterial growth measured after 96 hrs by broth dilution method; format: functional
[8] = system: Escherichia coli; assay: Antibacterial activity against Escherichia coli ATCC 25922 assessed as inhibition of bacterial growth measured after 24 hrs by broth dilution method; format: functional
[9] = system: HepG2; assay: Cytotoxicity against human HepG2 cells assessed as reduced cell viability at 4 ug/ml measured after 16 hrs by MTT assay; format: cell-based; details: hepg2, 16 h, dose 4 µg/ml
[10] = system: Staphylococcus aureus; assay: Antibacterial activity against Methycillin-resistant Staphylococcus aureus ATCC 43300 assessed as inhibition of bacterial growth measured after 24 hrs by broth dilution method; format: functional
[11] = system: Staphylococcus aureus; assay: Bactericidal activity against Staphylococcus aureus AD3 assessed as inhibition of bacterial growth measured after 96 hrs by broth dilution method; format: functional
[12] = system: RAW264.7; assay: Cytotoxicity against mouse RAW264.7 cells assessed as reduced cell viability at 4 ug/ml measured after 16 hrs by MTT assay; format: cell-based; details: raw264.7, 16 h, dose 4 µg/ml

SMILES: C=C[C@]1(C)C[C@@H](OC(=O)CSc2nnc(C)n2/N=C/c2ccc(N(C)C)cc2)[C@]2(C)[C@H](C)CC[C@]3(CCC(=O)[C@H]32)[C@@H](C)[C@@H]1O
- MBC [1]: > 64 µg/mL
- MIC [2]: 2 µg/mL (≈ 3.22 µM)
- MIC [3]: 0.5 µg/mL (≈ 0.804 µM)
- MBC [4]: 2 µg/mL (≈ 3.22 µM)
- MIC [5]: 1 µg/mL (≈ 1.61 µM)
- MBC [6]: 1 µg/mL (≈ 1.61 µM)
- MBC [7]: 4 µg/mL (≈ 6.43 µM)
- MIC [8]: > 64 µg/mL
- Activity [9]: Non-Toxic
- MIC [10]: 0.5 µg/mL (≈ 0.804 µM)
- MBC [11]: 4 µg/mL (≈ 6.43 µM)
- Activity [12]: Non-Toxic

SMILES: C=C[C@]1(C)C[C@@H](OC(=O)CSc2nnc(C)n2/N=C/c2ccc(N3CCCC3)cc2)[C@]2(C)[C@H](C)CC[C@]3(CCC(=O)[C@H]32)[C@@H](C)[C@@H]1O
- MBC [1]: > 64 µg/mL
- MIC [2]: 2 µg/mL (≈ 3.09 µM)
- MIC [3]: 2 µg/mL (≈ 3.09 µM)
- MBC [4]: 4 µg/mL (≈ 6.17 µM)
- MIC [5]: 2 µg/mL (≈ 3.09 µM)
- MBC [6]: 2 µg/mL (≈ 3.09 µM)
- MBC [7]: 4 µg/mL (≈ 6.17 µM)
- MIC [8]: > 64 µg/mL
- Activity [9]: Non-Toxic
- MIC [10]: 1 µg/mL (≈ 1.54 µM)
- MBC [11]: 4 µg/mL (≈ 6.17 µM)
- Activity [12]: Non-Toxic

SMILES: C=C[C@]1(C)C[C@@H](OC(=O)CSc2nnc(C)n2/N=C/c2ccc(F)cc2)[C@]2(C)[C@H](C)CC[C@]3(CCC(=O)[C@H]32)[C@@H](C)[C@@H]1O
- MBC [1]: > 64 µg/mL
- MIC [2]: 2 µg/mL (≈ 3.35 µM)
- MIC [3]: 1 µg/mL (≈ 1.68 µM)
- MBC [4]: 4 µg/mL (≈ 6.7 µM)
- MIC [5]: 1 µg/mL (≈ 1.68 µM)
- MBC [6]: 2 µg/mL (≈ 3.35 µM)
- MBC [7]: 4 µg/mL (≈ 6.7 µM)
- MIC [8]: > 64 µg/mL
- Activity [9]: Non-Toxic
- MIC [10]: 1 µg/mL (≈ 1.68 µM)
- MBC [11]: 4 µg/mL (≈ 6.7 µM)
- Activity [12]: Non-Toxic

SMILES: C=C[C@]1(C)C[C@@H](OC(=O)CO)[C@]2(C)[C@H](C)CC[C@]3(CCC(=O)[C@H]32)[C@@H](C)[C@@H]1O [PLEUROMULIN]
- MBC [1]: > 64 µg/mL
- MIC [2]: 2 µg/mL (≈ 5.28 µM)
- MIC [3]: 2 µg/mL (≈ 5.28 µM)
- MBC [4]: 4 µg/mL (≈ 10.6 µM)
- MIC [5]: 2 µg/mL (≈ 5.28 µM)
- MBC [6]: 4 µg/mL (≈ 10.6 µM)
- MBC [7]: 4 µg/mL (≈ 10.6 µM)
- MIC [8]: > 64 µg/mL
- MIC [10]: 2 µg/mL (≈ 5.28 µM)
- MBC [11]: 4 µg/mL (≈ 10.6 µM)

SMILES: C=C[C@]1(C)C[C@@H](OC(=O)CSc2nnc(C)n2/N=C/c2ccc(C#N)cc2)[C@]2(C)[C@H](C)CC[C@]3(CCC(=O)[C@H]32)[C@@H](C)[C@@H]1O
- MBC [1]: > 64 µg/mL
- MIC [2]: 2 µg/mL (≈ 3.31 µM)
- MIC [3]: 1 µg/mL (≈ 1.66 µM)
- MBC [4]: 4 µg/mL (≈ 6.62 µM)
- MIC [5]: 2 µg/mL (≈ 3.31 µM)
- MBC [6]: 4 µg/mL (≈ 6.62 µM)
- MBC [7]: 4 µg/mL (≈ 6.62 µM)
- MIC [8]: > 64 µg/mL
- Activity [9]: Non-Toxic
- MIC [10]: 1 µg/mL (≈ 1.66 µM)
- MBC [11]: 4 µg/mL (≈ 6.62 µM)
- Activity [12]: Non-Toxic

SMILES: C=C[C@]1(C)C[C@@H](OC(=O)CSc2nnc(C)n2/N=C/c2ccccc2)[C@]2(C)[C@H](C)CC[C@]3(CCC(=O)[C@H]32)[C@@H](C)[C@@H]1O
- MBC [1]: > 64 µg/mL
- MIC [2]: 2 µg/mL (≈ 3.46 µM)
- MIC [3]: 1 µg/mL (≈ 1.73 µM)
- MBC [4]: 2 µg/mL (≈ 3.46 µM)
- MIC [5]: 1 µg/mL (≈ 1.73 µM)
- MBC [6]: 1 µg/mL (≈ 1.73 µM)
- MBC [7]: 4 µg/mL (≈ 6.91 µM)
- MIC [8]: > 64 µg/mL
- Activity [9]: Non-Toxic
- MIC [10]: 0.5 µg/mL (≈ 0.864 µM)
- MBC [11]: 4 µg/mL (≈ 6.91 µM)
- Activity [12]: Non-Toxic

SMILES: C=C[C@]1(C)C[C@@H](OC(=O)CSc2nnc(C)n2/N=C/c2cccc(F)c2)[C@]2(C)[C@H](C)CC[C@]3(CCC(=O)[C@H]32)[C@@H](C)[C@@H]1O
- MBC [1]: > 64 µg/mL
- MIC [2]: 2 µg/mL (≈ 3.35 µM)
- MIC [3]: 1 µg/mL (≈ 1.68 µM)
- MBC [4]: 4 µg/mL (≈ 6.7 µM)
- MIC [5]: 1 µg/mL (≈ 1.68 µM)
- MBC [6]: 1 µg/mL (≈ 1.68 µM)
- MBC [7]: 4 µg/mL (≈ 6.7 µM)
- MIC [8]: > 64 µg/mL
- Activity [9]: Non-Toxic
- MIC [10]: 0.5 µg/mL (≈ 0.838 µM)
- MBC [11]: 4 µg/mL (≈ 6.7 µM)
- Activity [12]: Non-Toxic

SMILES: C=C[C@]1(C)C[C@@H](OC(=O)CSc2nnc(C)n2/N=C/c2cccc(C(F)(F)F)c2)[C@]2(C)[C@H](C)CC[C@]3(CCC(=O)[C@H]32)[C@@H](C)[C@@H]1O
- MBC [1]: > 64 µg/mL
- MIC [2]: 4 µg/mL (≈ 6.18 µM)
- MIC [3]: 2 µg/mL (≈ 3.09 µM)
- MBC [4]: 4 µg/mL (≈ 6.18 µM)
- MIC [5]: 2 µg/mL (≈ 3.09 µM)
- MBC [6]: 4 µg/mL (≈ 6.18 µM)
- MBC [7]: 4 µg/mL (≈ 6.18 µM)
- MIC [8]: > 64 µg/mL
- Activity [9]: Non-Toxic
- MIC [10]: 2 µg/mL (≈ 3.09 µM)
- MBC [11]: 4 µg/mL (≈ 6.18 µM)
- Activity [12]: Non-Toxic

SMILES: C=C[C@]1(C)C[C@@H](OC(=O)CSc2nnc(C)n2/N=C/c2cccc(C)c2)[C@]2(C)[C@H](C)CC[C@]3(CCC(=O)[C@H]32)[C@@H](C)[C@@H]1O
- MBC [1]: > 64 µg/mL
- MIC [2]: 2 µg/mL (≈ 3.37 µM)
- MIC [3]: 1 µg/mL (≈ 1.69 µM)
- MBC [4]: 2 µg/mL (≈ 3.37 µM)
- MIC [5]: 1 µg/mL (≈ 1.69 µM)
- MBC [6]: 2 µg/mL (≈ 3.37 µM)
- MBC [7]: 4 µg/mL (≈ 6.75 µM)
- MIC [8]: > 64 µg/mL
- Activity [9]: Non-Toxic
- MIC [10]: 1 µg/mL (≈ 1.69 µM)
- MBC [11]: 4 µg/mL (≈ 6.75 µM)
- Activity [12]: Non-Toxic

SMILES: C=C[C@]1(C)C[C@@H](OC(=O)CSc2nnc(C)n2/N=C/c2ccccc2F)[C@]2(C)[C@H](C)CC[C@]3(CCC(=O)[C@H]32)[C@@H](C)[C@@H]1O
- MBC [1]: > 64 µg/mL
- MIC [2]: 2 µg/mL (≈ 3.35 µM)
- MIC [3]: 1 µg/mL (≈ 1.68 µM)
- MBC [4]: 2 µg/mL (≈ 3.35 µM)
- MIC [5]: 1 µg/mL (≈ 1.68 µM)
- MBC [6]: 1 µg/mL (≈ 1.68 µM)
- MBC [7]: 4 µg/mL (≈ 6.7 µM)
- MIC [8]: > 64 µg/mL
- Activity [9]: Non-Toxic
- MIC [10]: 0.5 µg/mL (≈ 0.838 µM)
- MBC [11]: 4 µg/mL (≈ 6.7 µM)
- Activity [12]: Non-Toxic
